Entries after “also recorded” stand apart in the source; their conditions may differ.
What was measured:
[1] = molecular target: T1, Electrophorus electricus AChE (EeAChE) (Electrophorus electricus, UniProt O42275); experiment: Inhibition of EeAChE (Ellman's assay); format: biochemical; details: mean ± SEM, at least three independent experiments
T1 construct: purified AChE from Electrophorus electricus (Type V-S, Sigma-Aldrich); purchased Sigma-Aldrich Type V-S
Protocol: For the preliminary screening of the inhibitory potencies, Electrophorus electricus AChE (EeAChE) and horse serum BuChE (eqBuChE) were used following the Ellman’s assay.
Assessment of the inhibitory power of BCPOs was performed following the spectrophotometric method of Ellman using purified AChE from Electrophorus electricus (Type V-S, Sigma-Aldrich) or BuChE from horse serum (lyophilized powder, Sigma-Aldrich). Enzymes were first dissolved in 0.1 M phosphate buffer (pH 8.0) and then aliquoted in small vials for easy handling. Compounds stock solutions in DMSO (10 mM) were diluted when necessary with DMSO to prepare appropriate dilutions of each compound. The assay was performed in a final volume of 3 mL of a 0.1 M phosphate-buffered solution at pH 8.0, containing 5,5′-dithiobis-2-nitrobenzoic acid (DTNB, 2625 µL, 0.35 mM, final concentration), EeAChE (29 µL, 0.035 U/mL final concentration) or eqBuChE (60 µL, 0.05 U/mL final concentration) tested compound (3 µL, different concentrations) and 1% (w/v) Bovine Albumin Serum phosphate-buffered (pH 8.0) solution (BSA, 40 µL). The inhibition in comparison to control without compound was determined by pre-incubating this blend at room temperature with each compound at nine different concentrations for 10 min. Then, acetylthiocholine iodide (105 µL, 0.35 mM, final concentration) or butyrylthiocholine iodide (150 µL, 0.5 mM final concentration) was added and incubated for another 15 min at rt. […] Calculation of IC50 values was performed with GraphPad Prism 5. Each concentration was measured in triplicate. Data are expressed as mean ± SEM.

[2] = molecular target: T2, Recombinant human Aβ1–42 peptide (Homo sapiens, UniProt P05067); experiment: Inhibition of Aβ1-42 aggregation (Thioflavin-T fluorometric assay); format: biochemical; details: for inhibition at 10 µM: 10 µM compound and 1.5 µM Aβ1-42, mean ± standard deviation of two independent experiments
T2 construct: Recombinant human 1,1,1,3,3,3-hexafluoro-2-propanol pretreated Aβ1–42 peptide; purchased Merck Millipore
Protocol: 2. Thioflavin-T (ThT) Fluorometric Assay
Recombinant human 1,1,1,3,3,3-hexafluoro-2-propanol pretreated Aβ1–42 peptide (Merck Millipore, Darmstadt, Germany) was dissolved in DMSO to give 75 µM stock solution. The stock solution was further diluted in HEPES buffered solu tion (150 mM HEPES, pH 7.4, 150 mM NaCl), to 7.5 µM. Aβ1–42 solution was then added to the test compounds in black-walled 96-well plate, and diluted with ThT solution (final concentration of ThT was 10 µM). Final mixture contained 1.5 µM Aβ1–42, 10 µM of test compounds, and 3% DMSO. ThT fluorescence was measured every 5 min (λex = 440 nm, λem = 490 nm), with the medium continuously shaking between measurements using a 96-well microplate reader (Synergy™ H4, BioTek Instruments, Inc., Winooski, VT, USA). The fluorescence intensities at the plateau reached after 24 h in the absence and presence of the test compound were averaged, and the average fluorescence of the corresponding wells at t = 15 min was subtracted. The Aβ1–42 aggregation inhibitory potency is expressed as the percentage inhibition (% inh = (1 − Fi/F0) × 100%), where Fi is the increase in fluorescence of Aβ1–42 treated with the test compound, and F0 is the increase in fluorescence of Aβ1–42 alone.
1. LeVine, H. Thioflavine T interaction with synthetic Alzheimer’s disease beta-amyloid peptides:
Detection of amyloid aggregation in solution. Protein Sci. Publ. Protein Soc. 1993, 2, 404–410.

in vitro = details: for Papp at 100 µM: PAMPA, pH 7.4; for BBB Penetration Estimation CNS (+/−): PAMPA-BBB class
Protocol: Penetration across the BBB is an essential property for compounds targeting the CNS. […] The filter membrane of the donor plate was coated with PBL (Polar Brain Lipid, Avanti, AL, USA) in dodecane (4 µL of 20 mg/mL PBL in dodecane) and the acceptor well was filled with 300 µL of PBS pH 7.4 buffer ([…]). Tested compounds were dissolved first in DMSO and that diluted with PBS pH 7.4 to reach the final concentration 100 µM in the donor well. […] 300 µL of the donor solution was added to the donor wells ([…]) and the donor filter plate was carefully put on the acceptor plate so that coated membrane was “in touch” with both donor solution and acceptor buffer. Test compound diffused from the donor well through the lipid membrane (Area = 0.28 cm^2) to the acceptor well. The concentration of the drug in both donor and the acceptor wells was assessed after 3, 4, 5 and 6 h of incubation in quadruplicate using the UV plate reader Synergy HT (Biotek, Winooski, VT, USA) at the maximum absorption wavelength of each compound.

[3] = molecular target: T3, human recombinant AChE (hAChE) (Homo sapiens, UniProt P22303); experiment: Kinetic characterization of hAChE inhibition (Lineweaver-Burk); format: biochemical
T3 construct: purchased Sigma-Aldrich
Protocol: To get insight into the mode of inhibition, the kinetic mechanism of hAChE inhibition by compound 3Bb was investigated through classical Lineweaver-Burk double reciprocal plots.
To estimate the type of inhibition of hAChE, we performed the same experimental protocol as reported for hAChE inhibition. […]. The stock solution of ATC (0.5 mM in a well) was prepared in demineralized water and diluted before use to obtain 0.4, 0.3, 0.2, 0.1 and 0.067 mM substrate solutions. The double reciprocal plots were analysed by a weighted least square procedure that assumed the variance of V to be constant. Each experiment was performed in triplicate. To confirm the mode of inhibition, Cornish-Bowden plots were obtained by plotting S/V (substrate/velocity ratio) versus the inhibitor concentration. Data analysis was performed with GraphPad Prism 5. Inhibition constant (Ki) values were determined by re-plotting slopes from the Lineweaver-Burk plot versus the inhibitor concentration where Ki was determined as the intersect of the line with the x-axis.

[4] = Solubility in DMSO (footnote remark); format: physicochemical; details: DMSO at 10 mM and 1 mM

T1 sequence (O42275 24-633): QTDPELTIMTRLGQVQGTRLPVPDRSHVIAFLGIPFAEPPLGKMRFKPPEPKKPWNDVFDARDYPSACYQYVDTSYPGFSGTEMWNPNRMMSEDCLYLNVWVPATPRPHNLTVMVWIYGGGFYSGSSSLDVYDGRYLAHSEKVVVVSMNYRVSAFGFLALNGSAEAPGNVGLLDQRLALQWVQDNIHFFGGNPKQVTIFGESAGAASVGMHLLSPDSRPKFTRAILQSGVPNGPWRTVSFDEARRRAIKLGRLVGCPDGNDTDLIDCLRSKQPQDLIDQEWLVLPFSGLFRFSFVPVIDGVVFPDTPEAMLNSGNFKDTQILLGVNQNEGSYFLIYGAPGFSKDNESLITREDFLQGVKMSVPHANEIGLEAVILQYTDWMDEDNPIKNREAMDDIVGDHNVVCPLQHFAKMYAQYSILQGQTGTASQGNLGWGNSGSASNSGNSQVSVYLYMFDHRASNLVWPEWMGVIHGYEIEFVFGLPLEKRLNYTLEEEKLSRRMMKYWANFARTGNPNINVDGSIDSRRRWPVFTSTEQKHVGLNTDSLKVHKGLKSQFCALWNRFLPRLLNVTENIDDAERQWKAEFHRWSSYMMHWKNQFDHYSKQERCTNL
T3 sequence (P22303 32-614): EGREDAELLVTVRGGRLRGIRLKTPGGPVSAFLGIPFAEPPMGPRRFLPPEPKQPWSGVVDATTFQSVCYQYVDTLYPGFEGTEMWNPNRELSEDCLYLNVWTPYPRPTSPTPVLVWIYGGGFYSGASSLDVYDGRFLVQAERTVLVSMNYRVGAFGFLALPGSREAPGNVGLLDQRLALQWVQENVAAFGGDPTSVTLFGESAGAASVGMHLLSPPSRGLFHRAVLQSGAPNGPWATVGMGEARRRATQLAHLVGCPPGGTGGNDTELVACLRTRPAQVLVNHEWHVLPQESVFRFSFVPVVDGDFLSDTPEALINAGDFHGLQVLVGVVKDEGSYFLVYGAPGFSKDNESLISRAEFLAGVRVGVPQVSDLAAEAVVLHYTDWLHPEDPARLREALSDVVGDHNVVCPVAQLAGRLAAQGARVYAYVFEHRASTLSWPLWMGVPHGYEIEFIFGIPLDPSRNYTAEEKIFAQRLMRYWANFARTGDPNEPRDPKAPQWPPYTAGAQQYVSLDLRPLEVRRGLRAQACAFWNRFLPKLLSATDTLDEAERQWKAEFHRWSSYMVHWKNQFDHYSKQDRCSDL
T2 sequence (P05067 672-713): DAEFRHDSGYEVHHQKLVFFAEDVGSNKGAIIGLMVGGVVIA

Structure (SMILES) | IC50 [1] | Aβ1–42 aggregation inhibition (in words) ([2]; 10 µM compound) | inhibition at 10 µM [2] | Papp at 100 µM (in vitro) | BBB Penetration Estimation CNS (+/−) (in vitro) | mode of hAChE inhibition ([3]; Lineweaver-Burk double reciprocal plot) | Ki ([3]; estimated from Lineweaver-Burk replots, read-out: Ki (dissociation constant for the enzyme-inhibitor complex)) | solubility in DMSO (in words) [4]
O=c1c2c(nc3n1CCCC3)Oc1ccc3ccccc3c1C2c1ccccc1 (stereo not drawn) [3Ab, 15-Phenyl-10,11,12,15-tetrahydro-9H-benzo[5,6]chromeno[2,3-d]pyrido[1,2-a]pyrimidin-14-one] | 0.0555 ± 0.0071 µM | weak inhibition power | 13.6 ± 2.1% | 7.2 ± 0.6 ×10⁻⁶ cm/s | CNS (+) (‘CNS (+)’ (high BBB permeability predicted); Pe (10^−6 cm·s^−1) > 4.0) | – | – | –
COc1cccc(C2c3c(nc4n(c3=O)CCC4)Oc3ccc4ccccc4c32)c1 (stereo not drawn) [3Ba, 14-(3′Methoxyphenyl)-10,11-dihydro-14H-benzo[5,6]chromeno[2,3-d]pyrrolo[1,2-a]pyrimidin-13(9H)-one] | 0.0607 ± 0.0045 µM | – | < 10% | 4.6 ± 0.77 ×10⁻⁶ cm/s | CNS (+) (‘CNS (+)’ (high BBB permeability predicted); Pe (10^−6 cm·s^−1) > 4.0) | – | – | –
COc1cccc(C2c3c(nc4n(c3=O)CCCC4)Oc3ccc4ccccc4c32)c1 (stereo not drawn) [3Bb, 15-(3′-Methoxyphenyl)-10,11,12,15-tetrahydro-9H-benzo[5,6]chromeno[2,3-d]pyrido[1,2-a]pyrimidin-14-one] | 0.0305 ± 0.0028 µM | – | < 10% | 3.6 ± 0.57 ×10⁻⁶ cm/s | CNS (+/−) (‘CNS (+/−) (BBB permeability uncertain); Pe (10^−6 cm·s^−1) from 4.0 to 2.0) | mixed-type inhibition; also recorded: mixed-type hAChE inhibitor | 0.38 µM | –
Cc1ccc(C2c3c(nc4n(c3=O)CCCC4)Oc3ccc4ccccc4c32)cc1 (stereo not drawn) [3Cb, 15-(4′-Methylphenyl)-10,11,12,15-tetrahydro-9H-benzo[5,6]chromeno[2,3-d]pyrido[1,2-a]pyrimidin-14-one] | 0.0559 ± 0.0127 µM | – | < 10% | – | – | – | – | poor solubility in DMSO at 10 mM and 1 mM

— article PMC6273488, “Synthesis and Biological Evaluation of Benzochromenopyrimidinones as Cholinesterase Inhibitors and Potent Antioxidant, Non-Hepatotoxic Agents for Alzheimer’s Disease” (Molecules, 2016)
